In patent US20240425478A1, “CYCLOPENTYLPYRAZOLE CDK2 INHIBITORS” (Genentech, Inc., priority 2021, published 2024):
Read-outs that look alike come from different tables or passages of the source.

Key:
HCT116 cells = assay: p-H3 HCT-116 mitotic release cell proliferation assay (cellular CDK1); format: cell-based; details: Homo sapiens, HCT-116; Table O, cellular assay; read-out: CDK1 p-H3 IC50
In short: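 HCT116 cells arrested 16 h with 500 nM nocodazole, then exposed to compound for 4 h at 37 °C (0.1% DMSO). Lysates read by HTRF/FRET with donor and acceptor phospho-Histone H3 (Ser10) antibodies, ≥2 h at room temperature; CDK1 inhibition seen as loss of p-H3 on mitotic release.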

[1] = test system: OVISE (JCRB1043, CCNE1-amplified); assay: OVISE EdU incorporation cell proliferation assay (CDK2-dependent); format: cell-based; details: for IC50: cellular assay, read-out: CDK2 OVISE IC50; for FS SKOV-3/OVISE / FS p-H3/OVISE: fold selectivity; for FS p-H3/OVISE: cellular p-H3 IC50 over OVISE IC50; for increased fold-selectivity SKOV-3/OVISE over Comparator C: (+) sign after FS SKOV-3/OVISE; for improvement in CDK2 OVISE cell potency over Comparator C: in brackets after OVISE IC50, Comparator C 5.5 μM
In short: (§1)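 Cells in RPMI/10% FBS dosed with compound (0.5% DMSO final) for 16 h at 37 °C, 5% CO2, then EdU 0.5 μM final for 8 h before fixation and imaging. IC50 from 4-parameter logistic fit of EdU-positive cell fraction versus dose.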

SKOV-3 (ATCC HTB-77) = assay: SKOV-3 EdU incorporation cell proliferation assay (CDK4/6-dependent); format: cell-based; details: Homo sapiens, cellular assay, read-out: CDK4/6 SKOV-3 IC50
In short: as §1

[2] = target: T1, Cyclin Dependent Kinase 2/Cyclin E1 (CDK2-cycE1) (Homo sapiens, UniProt P24941); assay: CDK2-cycE1 TR-FRET (LANCE) enzyme assay; format: biochemical; details: for FS CDK1/CDK2 / FS CDK4/CDK2: fold selectivity; for increased fold-selectivity CDK4/CDK2 over Comparator C: (+) sign after FS CDK4/CDK2;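 for improvement in potency against CDK2 (Ki) over Comparator C: fold lower CDK2 Ki than comparator c (Ki 0.032 µM)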
T1 construct: purchased ProQinase 0050-0055-1
In short: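 Compound dose responses pre-incubated 30 min with CDK2-cycE1 in 50 mM HEPES pH 7.5, 10 mM MgCl2, 2 mM TCEP, 0.05% BGG, 0.01% Brij 35. Reaction quenched with EDTA (15 mM final), phospho-MBP detected by Eu-anti-phospho-MBP TR-FRET (acceptor/donor ratio). Inhibition constants from Morrison equation.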

[3] = target: T2, Cyclin Dependent Kinase 4/Cyclin D3 (CDK4-cycD3) (Homo sapiens, UniProt P11802); assay: CDK4-cycD3 TR-FRET (LANCE) enzyme assay; format: biochemical; details: Table O, enzymatic assay
T2 construct: purchased Carna Biosciences 04-105
In short: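 Compound dose responses pre-incubated 30 min with enzyme mix in 50 mM HEPES pH 7.5, 10 mM MgCl2, 2 mM TCEP, 0.05% BGG, 0.01% Brij 35. Reaction quenched with EDTA (15 mM final); Eu-anti-phospho-4E-BP1 TR-FRET detection, acceptor/donor ratio. Ki derived by Morrison equation.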

[4] = target: T3, Cyclin Dependent Kinase 1/Cyclin A2 (CDK1-cycA2) (Homo sapiens, UniProt P06493); assay: CDK1-cycA2 TR-FRET (Lance) enzyme assay; format: biochemical; details: Table O, enzymatic assay
T3 construct: purchased ProQinase 0134-0054-1
In short: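 Human CDK1/cyclin A2 pre-incubated 30 min with compound dose responses in 50 mM HEPES pH 7.5, 10 mM MgCl2, 2 mM TCEP, 0.05% BGG, 0.01% Brij 35. Reaction quenched with EDTA (15 mM final); TR-FRET readout using Eu-anti-phospho-4E-BP1, acceptor/donor ratio. Inhibition constants from Morrison equation.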

[5] = Table O, cellular SKOV-3 IC50 over OVISE IC50
[6] = Table O, enzymatic assay, read-out: CDK2 Ki
[7] = Table O, enzymatic CDK1 Ki over CDK2 Ki
[8] = Table O, enzymatic CDK4 Ki over CDK2 Ki
[9] = Table Q, enzymatic assay, read-out: CDK2 Ki

T2 sequence (P11802 whole entry): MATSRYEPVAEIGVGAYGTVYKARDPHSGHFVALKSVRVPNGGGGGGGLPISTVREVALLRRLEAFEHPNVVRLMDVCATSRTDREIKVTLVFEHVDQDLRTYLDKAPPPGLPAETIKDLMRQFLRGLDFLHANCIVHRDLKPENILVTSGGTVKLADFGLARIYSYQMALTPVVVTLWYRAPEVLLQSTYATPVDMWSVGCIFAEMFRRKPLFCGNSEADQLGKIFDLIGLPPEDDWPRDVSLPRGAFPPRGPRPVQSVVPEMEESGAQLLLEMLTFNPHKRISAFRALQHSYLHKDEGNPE
T2 sequence (P30281 whole entry partner): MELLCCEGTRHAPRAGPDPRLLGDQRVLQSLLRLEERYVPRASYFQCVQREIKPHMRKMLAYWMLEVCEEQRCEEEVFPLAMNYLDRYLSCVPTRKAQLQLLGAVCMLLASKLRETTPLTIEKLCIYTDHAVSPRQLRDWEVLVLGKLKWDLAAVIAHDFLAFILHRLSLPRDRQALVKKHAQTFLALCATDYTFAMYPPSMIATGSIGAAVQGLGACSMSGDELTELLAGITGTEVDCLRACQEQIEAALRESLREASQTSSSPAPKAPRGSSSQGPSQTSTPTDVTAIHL
T3 sequence (P06493 whole entry): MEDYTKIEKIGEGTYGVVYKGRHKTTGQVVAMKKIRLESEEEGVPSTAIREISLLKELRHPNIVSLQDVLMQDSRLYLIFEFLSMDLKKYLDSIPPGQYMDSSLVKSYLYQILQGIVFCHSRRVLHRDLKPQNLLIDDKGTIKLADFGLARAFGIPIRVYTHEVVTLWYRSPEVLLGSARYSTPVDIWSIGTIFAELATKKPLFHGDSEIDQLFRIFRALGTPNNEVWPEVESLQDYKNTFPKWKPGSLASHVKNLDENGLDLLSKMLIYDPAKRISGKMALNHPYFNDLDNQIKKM
T3 sequence (P20248 whole entry partner): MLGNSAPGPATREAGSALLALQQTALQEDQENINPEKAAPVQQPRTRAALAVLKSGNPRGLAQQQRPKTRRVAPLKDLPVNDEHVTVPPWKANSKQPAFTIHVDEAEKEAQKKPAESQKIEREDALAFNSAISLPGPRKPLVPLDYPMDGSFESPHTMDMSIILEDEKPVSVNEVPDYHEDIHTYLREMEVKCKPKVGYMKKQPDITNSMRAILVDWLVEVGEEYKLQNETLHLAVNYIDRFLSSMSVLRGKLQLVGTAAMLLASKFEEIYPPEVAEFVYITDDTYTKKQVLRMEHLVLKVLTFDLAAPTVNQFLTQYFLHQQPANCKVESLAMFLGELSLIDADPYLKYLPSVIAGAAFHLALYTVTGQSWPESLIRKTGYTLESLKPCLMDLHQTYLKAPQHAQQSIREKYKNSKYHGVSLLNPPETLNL

Row | Compound | IC50 (HCT116 cells) | IC50 ([1]; Table O) | FS SKOV-3/OVISE [1, 5] | FS p-H3/OVISE ([1]; Table O) | increased fold-selectivity SKOV-3/OVISE over Comparator C ([1]; Table Q) | FS SKOV-3/OVISE ([1]; Table Q, cellular) | improvement in CDK2 OVISE cell potency over Comparator C ([1]; Table Q) | IC50 (SKOV-3 (ATCC HTB-77); SK-OV-3, Table O) | IC50 (SKOV-3 (ATCC HTB-77); SK-OV-3, Table Q) | improvement in potency against CDK2 (Ki) over Comparator C [2] | Ki [2, 6] | FS CDK1/CDK2 [2, 7] | FS CDK4/CDK2 [2, 8] | increased fold-selectivity CDK4/CDK2 over Comparator C ([2]; Table Q) | Ki [2, 9] | FS CDK1/CDK2 ([2]; Table Q, enzymatic) | FS CDK4/CDK2 ([2]; Table Q, enzymatic) | Ki [3] | Ki [4] | further results
1 | CC(C)NC(=O)O[C@@H]1CC[C@H](c2cc(Nc3cncc(C(F)(F)F)n3)n[nH]2)C1 [Example 2R, (1R,3S)-3-(3-((6-(trifluoromethyl)pyrazin-2-yl)amino)-1H-pyrazol-5-yl)cyclopentyl isopropylcarbamate] | 3.5 nM | 5.6 nM | 30 | 0.63 | (+) (The (+) sign in Table Q signifies desirable increased fold-selectivity of the exemplary compounds over Comparator C) | 30 | 982 fold | 170 nM | 170 nM | 320 fold | < 0.1 nM | 6.3 | 140 | (+) (The (+) sign in Table Q signifies desirable increased fold-selectivity of the exemplary compounds over Comparator C) | < 0.1 nM | 6.3 | 140 | 9 nM | 0.4 nM | Ki ([2]; read-out: CDK2 activity / potency (enzymatic assay)): ≤ 1 nM
2 | Cc1cncc(Nc2cc([C@H]3CC[C@@H](OC(=O)NC(C)C)C3)[nH]n2)c1 [Example 2K, (1R,3S)-3-(3-((5-methylpyridin-3-yl)amino)-1H-pyrazol-5-yl)cyclopentyl isopropylcarbamate] | 87 nM | 190 nM | 41 | 0.46 | (+) (The (+) sign in Table Q signifies desirable increased fold-selectivity of the exemplary compounds over Comparator C) | 41 | 28.9 fold | 7700 nM | 7700 nM | 10 fold | 3.2 nM | 18 | 110 | (+) (The (+) sign in Table Q signifies desirable increased fold-selectivity of the exemplary compounds over Comparator C) | 3.2 nM | 18 | 110 | 340 nM | 59 nM | 
3 | O=C(NC12CC(C1)C2)O[C@@H]1CC[C@H](c2cc(Nc3ccc(N4CCOCC4)nc3)n[nH]2)C1 [Example 9K, (1R,3S)-3-(3-((6-morpholinopyridin-3-yl)amino)-1H-pyrazol-5-yl)cyclopentyl bicyclo[1.1.1]pentan-1-ylcarbamate] | 49 nM | 190 nM | 3.7 | 0.26 |  |  |  | 710 nM |  |  | 5.6 nM | 7.3 | 12 |  |  |  |  | 67 nM | 41 nM | 
4 | Cc1nc(S(C)(=O)=O)ccc1Nc1cc([C@H]2CC[C@@H](OC(=O)NC(C)(C)C)C2)[nH]n1 [Example 4L, (1R,3S)-3-(3-((2-methyl-6-(methylsulfonyl)pyridin-3-yl)amino)-1H-pyrazol-5-yl)cyclopentyl tert-butylcarbamate] | 310 nM | 310 nM | 52 | 1 |  |  |  | 16000 nM |  |  | 2.9 nM | 33 | 162 |  |  |  |  | 470 nM | 95 nM | 
5 | COc1cncc(Nc2cc([C@H]3CC[C@@H](OC(=O)NC(C)C)C3)[nH]n2)n1 [Example 2N, (1R,3S)-3-(3-((6-methoxypyrazin-2-yl)amino)-1H-pyrazol-5-yl)cyclopenty1 isopropylcarbamate] | 11 nM | 29 nM | 41 | 0.38 | (+) (The (+) sign in Table Q signifies desirable increased fold-selectivity of the exemplary compounds over Comparator C) | 41 | 190 fold | 1200 nM | 1200 nM | 65 fold | 0.49 nM | 7.6 | 53 | (+) (The (+) sign in Table Q signifies desirable increased fold-selectivity of the exemplary compounds over Comparator C) | 0.49 nM | 7.6 | 53 | 26 nM | 3.7 nM | 
6 | CC(C)NC(=O)O[C@@H]1CC[C@H](c2cc(Nc3cncnc3)n[nH]2)C1 [Example 2B, (1R,3S)-3-(3-(pyrimidin-5-ylamino)-1H-pyrazol-5-yl)cyclopentyl isopropylcarbamate] | 2900 nM | 230 nM | >70 | 1.1 | (+) (The (+) sign in Table Q signifies desirable increased fold-selectivity of the exemplary compounds over Comparator C) | > 70 | 24 fold | > 20000 nM | > 20000 nM | 9 fold | 3.4 nM | 47 | 120 | (+) (The (+) sign in Table Q signifies desirable increased fold-selectivity of the exemplary compounds over Comparator C) | 3.4 nM | 47 | 120 | 390 nM | 160 nM | increased fold-selectivity CDK1/CDK2 over Comparator C ([2]; Table Q, (+) sign after FS CDK1/CDK2): (+) (The (+) sign in Table Q signifies desirable increased fold-selectivity of the exemplary compounds over Comparator C)
